We go through seven compounds from patent publication US9302018B2, “Fluorescent probe for imaging lymph nodes” (Eisai R&D Management Co., Ltd., priority 2010, dated 2016).

A short description of data set [1]: Fluorescence detectability of fluorescent probe in vitro (brightness score, Image J). It counts as physicochemical. The conditions noted are these: excitation <780 nm, fluorescence >810 nm. The protocol:
Near-infrared fluorescence intensity was measured for the fluorescent dye-containing liposomes prepared in the manner described above with an aqueous solution of ICG serving as a control. 100 μL of liposome suspension containing a dye of a predetermined concentration or the ICG aqueous solution were added to a 96-well plate and irradiated with excitation light (LED light source, <780 nm) to detect the generated fluorescence (>810 nm). Brightness was evaluated using Image J image processing software.
In the table, values indicate the brightness score as determined with the Image J software (maximum value: 255), with the values shown in parentheses indicate the standard deviation.

The nature of data set [2]: Fluorescence lifetime (TemPro fluorescence lifetime photometer). In kind it is physicochemical. The conditions noted are these: excitation 740 nm, fluorescence 816 nm. The protocol: The fluorescence lifetimes of the fluorescence probes of the present invention were measured. The TemPro fluorescence lifetime photometer (manufactured by Horiba, Ltd.) was used for measurement. Table 3 indicates the values for a chloroform solution containing each near-infrared fluorescent dye at a concentration of 3.2×10^−2 mM and an aqueous solution of ICG (control), and Table 4 indicates values obtained from each of the near-infrared fluorescent dyes incorporated in the liposomes at a concentration of 3.2×10^−2 mM. A 740 nm semiconductor laser was used for the excitation light, and the lifetime spectra obtained at a fluorescence wavelength of 816 nm was analyzed for two components.

A short description of data set [3]: Maximum absorbance wavelength and molar extinction coefficient in ethanol. It counts as physicochemical. The conditions noted are these: for Molar Extinction Coefficient (ε): in ethanol; for λmax (EtOH): maximum absorbance wavelength in ethanol.
For data set [4], the system named is mouse popliteal lymph node. The experiment in a line: Fluorescent probe anchoring property in mouse popliteal lymph node. It counts as in vivo. The protocol:
In order to investigate the lymph node anchoring property of the fluorescent probe, an ICG-8-containing fluorescent probe dispersion (liposome mean particle diameter: 240 nm, 0.2 mL, phospholipid concentration: 10 mM) or an ICG aqueous solution serving as a control (0.2 mL, 3.2 mM) was injected into the foreleg of mice (FIG. 6A) in the same manner as Example 5. Ten minutes later, the epidermal tissue was peeled off, and the site was irradiated with excitation light (LED light source, <780 nm) and the generated fluorescence (>810 nm) was detected with a monochromatic camera.
To investigate primary lymph node anchoring rate after the passage of a prescribed amount of time, an ICG-8-containing fluorescent probe or ICG aqueous solution was administered to mice in the same manner as described above. […] The p-values were calculated using Fisher's exact test.

Where [5] appears, read: chloroform solution, 3.2×10^−2 mM.

`CC1(C)C(/C=C/C=C/C=C/C=C2\N(CCCCS(=O)(=O)[O-])c3ccc4ccccc4c3C2(C)C)=[N+](CCCCS(=O)(=O)[O-])c2ccc3ccccc3c21.[Na+]` [ICG, Indocyanine green]: the “brightness score (Image J, maximum value: 255), SD in parentheses” value is listed as 27(5) in data set [1] (dye concentration 3.2 mM); 38(6) in data set [1] (dye concentration 3.2 × 10−1 mM); 98(5) in data set [1] (dye concentration 3.2 × 10−2 mM); 118(10) in data set [1] (dye concentration 3.2 × 10−3 mM); 61(7) in data set [1] (dye concentration 3.2 × 10−4 mM). For the same compound, the “Fluorescence lifetime, first component (ns)” value in data set [2] (aqueous solution (control)) is reported as 0.01~0.15 ns. Besides, the “Molar Extinction Coefficient (ε)” value in data set [3] was 1.47 × 10^5. The “λmax (EtOH)” value in data set [3] was 787 nm. The “No. of mice in which fluorescence was observed in primary lymph node only/total no. of mice in experiment” value is listed as 0/4 in data set [4] (1 h elapsed from administration), 2/5 in data set [4] (3 h elapsed from administration), 0/4 in data set [4] (6 h elapsed from administration) and 0/3 in data set [4] (24 h elapsed from administration). The “Lymph nodes from which fluorescence was detected” value in data set [4] (mice, 0.2 mL into foreleg, ten minutes later, probe liposome mean particle diameter 240 nm, ICG aqueous solution 3.2 mM) was “emitted at the first popliteal lymph node from the foreleg as well as from the second external iliac lymph node”.
Take `CC1(C)C(/C=C/C=C/C=C/C=C2/N(CCC(=O)O)c3ccc4ccccc4c3C2(C)C)=[N+](CCCCS(=O)(=O)[O-])c2ccc3ccccc3c21` [ICG-6, 4-(2-((1E,3E,5E,7E)-7-(3-(2-carboxyethyl)-1,1-dimethyl-1H-benzo[e]indol-2-(3H)-ylidene)hepta-1,3,5-trienyl)-1,1-dimethyl-1H-benzo[e]indolium-3-yl)butane-1-sulfonic acid]: in data set [3], the “Molar Extinction Coefficient (ε)” value was 1.86×10^5 and the “λmax (EtOH)” value stood at 786 nm.
As to `CCCCN1/C(=C/C=C/C=C/C=C/C2=[N+](CCCCS(=O)(=O)[O-])c3ccc4ccccc4c3C2(C)C)C(C)(C)c2c1ccc1ccccc21` [ICG-8-C4, 4(2-((1E,3E,5E,7E)-7-(1,1-dimethyl-3-butyl-1H-benzo[e]indol-2(3H)-ylidene)hepta-1,3,5-trienyl)-1,1-dimethyl-1H-benzo[e]indolium-3-yl)butane-1-sulfonic acid], in data set [3], the “Molar Extinction Coefficient (ε)” value was 2.52×10^5 and the “λmax (EtOH)” value is listed as 787 nm.
With `CCCCCCN1/C(=C/C=C/C=C/C=C/C2=[N+](CCCCS(=O)(=O)[O-])c3ccc4ccccc4c3C2(C)C)C(C)(C)c2c1ccc1ccccc21` [ICG-8-C6, 4(2-((1E,3E,5E,7E)-7-(1,1-dimethyl-3-hexyl-1H-benzo[e]indol-2(3H)-ylidene)hepta-1,3,5-trienyl)-1,1-dimethyl-1H-benzo[e]indolium-3-yl)butane-1-sulfonic acid], in data set [2] (setting [5]), the “Fluorescence lifetime, first component (%)” value was determined as 69%; the “Fluorescence lifetime, first component (ns)” value worked out at 1.25 ns; the “Fluorescence lifetime, second component (%)” value was 31%; the “Fluorescence lifetime, second component (ns)” value was found to be 0.31 ns. Besides, in data set [3], the “Molar Extinction Coefficient (ε)” value is 2.34×10^5 and the “λmax (EtOH)” value amounted to 787 nm.
`CCCCCCCCN1/C(=C/C=C/C=C/C=C/C2=[N+](CCCCS(=O)(=O)[O-])c3ccc4ccccc4c3C2(C)C)C(C)(C)c2c1ccc1ccccc21` [ICG-8-C8, 4(2-((1E,3E,5E,7E)-7-(1,1-dimethyl-3-octyl-1H-benzo[e]indol-2(3H)-ylidene)hepta-1,3,5-trienyl)-1,1-dimethyl-1H-benzo[e]indolium-3-yl)butane-1-sulfonic acid]: in data set [3], the “Molar Extinction Coefficient (ε)” value is listed as 2.63×10^5 and the “λmax (EtOH)” value is given as 788 nm.
Consider `CCCCCCCCCCN1/C(=C/C=C/C=C/C=C/C2=[N+](CCCCS(=O)(=O)[O-])c3ccc4ccccc4c3C2(C)C)C(C)(C)c2c1ccc1ccccc21` [ICG-8-C10, 4(2-((1E,3E,5E,7E)-7-(1,1-dimethyl-3-decyl-1H-benzo[e]indol-2(3H)-ylidene)hepta-1,3,5-trienyl)-1,1-dimethyl-1H-benzo[e]indolium-3-yl)butane-1-sulfonic acid], for which, in data set [2] (setting [5]), the “Fluorescence lifetime, first component (%)” value came to 67%; the “Fluorescence lifetime, first component (ns)” value was found to be 1.27 ns; the “Fluorescence lifetime, second component (%)” value came out at 33%; the “Fluorescence lifetime, second component (ns)” value turned out to be 0.41 ns. Further, in data set [3], the “Molar Extinction Coefficient (ε)” value is 2.50 × 10^5 and the “λmax (EtOH)” value is given as 788 nm.
As for `CCCCCCN(CCCCCC)c1ccc(OC2=C(/C=C/C3=[N+](CCCCS(=O)(=O)[O-])c4ccc5ccccc5c4C3(C)C)CCC/C2=C\C=C2\N(CCCCS(=O)(=O)[O-])c3ccc4ccccc4c3C2(C)C)cc1.[Na+]` [ICG-9, sodium [4-(2-((E)-2-((E)-2-(4-(dihexyamino)phenoxy)-3-((E)-2-(1,1-dimethyl-3-(4-sulfonatebutyl)-1H-benzo[e]indol-2(3H)-ylidene)ethylidene)cyclohexenyl)vinyl)-1,1-dimethyl-1H-benzo[e]indolium-3-yl)butane-1-sulfonate]], in data set [3], the “Molar Extinction Coefficient (ε)” value is on record as 1.24×10^5 and the “λmax (EtOH)” value was 810 nm.
